{
  "source": "ChEMBL document CHEMBL1130119",
  "about": "“2-Carbomethoxy-3-aryl-8-oxabicyclo[3.2.1]octanes: potent non-nitrogen inhibitors of monoamine transporters” (J Med Chem, 1997)",
  "data": [
    {"target": "Monoamine transporters; serotonin & dopamine (Homo sapiens) (UniProt P31645+Q01959)", "sequence (P31645 whole entry, looked up)": "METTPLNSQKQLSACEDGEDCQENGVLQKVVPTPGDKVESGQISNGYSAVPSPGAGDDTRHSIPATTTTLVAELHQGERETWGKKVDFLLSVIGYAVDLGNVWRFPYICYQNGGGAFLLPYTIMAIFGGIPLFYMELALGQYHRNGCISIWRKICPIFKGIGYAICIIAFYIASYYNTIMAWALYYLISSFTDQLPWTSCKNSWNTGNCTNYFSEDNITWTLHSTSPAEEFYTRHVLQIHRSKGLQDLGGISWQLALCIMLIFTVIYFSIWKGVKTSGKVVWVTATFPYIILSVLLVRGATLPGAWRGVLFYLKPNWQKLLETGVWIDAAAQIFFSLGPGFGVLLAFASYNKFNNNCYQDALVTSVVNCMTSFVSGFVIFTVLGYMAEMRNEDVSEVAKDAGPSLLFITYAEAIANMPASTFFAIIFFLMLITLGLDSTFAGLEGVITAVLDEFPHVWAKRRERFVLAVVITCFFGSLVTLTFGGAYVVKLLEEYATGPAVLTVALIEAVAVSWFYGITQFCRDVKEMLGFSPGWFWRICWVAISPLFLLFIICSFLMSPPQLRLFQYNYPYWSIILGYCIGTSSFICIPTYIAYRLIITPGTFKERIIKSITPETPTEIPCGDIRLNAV", "sequence (Q01959 whole entry, looked up)": "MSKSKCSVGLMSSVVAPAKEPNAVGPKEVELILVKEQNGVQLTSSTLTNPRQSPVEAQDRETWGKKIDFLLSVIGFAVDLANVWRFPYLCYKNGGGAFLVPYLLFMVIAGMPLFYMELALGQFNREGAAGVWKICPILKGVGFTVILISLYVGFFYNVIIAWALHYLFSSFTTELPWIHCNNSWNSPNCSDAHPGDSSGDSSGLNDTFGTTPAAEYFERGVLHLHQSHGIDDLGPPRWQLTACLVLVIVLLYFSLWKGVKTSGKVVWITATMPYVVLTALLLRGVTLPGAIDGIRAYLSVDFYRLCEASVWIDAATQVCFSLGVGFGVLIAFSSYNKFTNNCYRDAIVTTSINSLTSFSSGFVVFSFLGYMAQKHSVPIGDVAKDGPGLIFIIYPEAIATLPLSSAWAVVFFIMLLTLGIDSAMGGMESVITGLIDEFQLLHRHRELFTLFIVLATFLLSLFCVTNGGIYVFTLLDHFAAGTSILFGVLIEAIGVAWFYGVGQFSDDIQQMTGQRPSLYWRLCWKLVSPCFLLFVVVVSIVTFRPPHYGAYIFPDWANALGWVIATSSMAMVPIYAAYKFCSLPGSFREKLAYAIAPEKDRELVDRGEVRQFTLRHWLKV", "experiment": "Selectivity ratio measured as the IC50 ratio of DAT receptor to that of 5-HT transporter", "conditions": "Cercopithecidae", "values": [
      {"compound": "COC(=O)C1C2CCC(CC1c1ccc(I)cc1)O2", "note": "(stereo in doubt; 7e (O-949)) [listing 1 of 2 here]", "Selectivity ratio": 2},
      {"compound": "COC(=O)C1C2CCC(CC1c1ccc(Cl)c(Cl)c1)O2", "note": "(stereo in doubt; 7f (O-913)) [listing 1 of 2 here]", "Selectivity ratio": 21},
      {"compound": "COC(=O)C1C2CCC(CC1c1ccc(Cl)c(Cl)c1)O2", "note": "(stereo in doubt; form 1) [listing 1 of 2 here]", "Selectivity ratio": 1.2},
      {"compound": "COC(=O)C1C2CCC(CC1c1ccc(F)cc1)O2", "note": "(stereo in doubt; 6b (O-895)) [listing 1 of 2 here]", "Selectivity ratio": 5},
      {"compound": "COC(=O)C1C2CCC(CC1c1ccc(Cl)cc1)O2", "note": "(stereo in doubt; 7c (O-915)) [listing 1 of 2 here]", "Selectivity ratio": 29},
      {"compound": "COC(=O)C1C2CCC(CC1c1ccc(Cl)cc1)O2", "note": "(stereo in doubt; 6c (O-916)) [listing 1 of 2 here]", "Selectivity ratio": 11},
      {"compound": "COC(=O)C1C2CCC(CC1c1ccc(Cl)c(Cl)c1)O2", "note": "(stereo in doubt; form 4) [listing 1 of 2 here]", "Selectivity ratio": 1.4},
      {"compound": "COC(=O)C1C2CCC(CC1c1ccc(F)cc1)O2", "note": "(stereo in doubt; 7b (O-899)) [listing 1 of 2 here]", "Selectivity ratio": 10},
      {"compound": "COC(=O)C1C2CCC(CC1c1ccc(I)cc1)O2", "note": "(stereo in doubt) [listing 1 of 2 here]", "Selectivity ratio": 1.7},
      {"compound": "COC(=O)C1C2CCC(CC1c1ccc(Br)cc1)O2", "note": "(stereo in doubt; form 1) [listing 1 of 2 here]", "Selectivity ratio": 1.4},
      {"compound": "COC(=O)C1C2CCC(CC1c1ccc(Cl)c(Cl)c1)O2", "note": "(stereo in doubt; 6f (O-914)) [listing 1 of 2 here]", "Selectivity ratio": 2},
      {"compound": "COC(=O)C1C2CCC(CC1c1ccc(Cl)c(Cl)c1)O2", "note": "(stereo in doubt; form 2) [listing 1 of 2 here]", "Selectivity ratio": 51},
      {"compound": "COC(=O)C1C2CCC(CC1c1ccc(Br)cc1)O2", "note": "(stereo in doubt; form 2) [listing 1 of 2 here]", "Selectivity ratio": 31},
      {"compound": "COC(=O)C1C2CCC(CC1c1ccccc1)O2", "note": "(stereo in doubt; 6a (O-904)) [listing 1 of 2 here]", "Selectivity ratio": 10},
      {"compound": "COC(=O)C1C2CCC(CC1c1ccc(Cl)c(Cl)c1)O2", "note": "(stereo in doubt; form 3) [listing 1 of 2 here]", "Selectivity ratio": 13},
      {"compound": "COC(=O)C1C2CCC(CC1c1ccccc1)O2", "note": "(stereo in doubt; 7a (O-905)) [listing 1 of 2 here]", "Selectivity ratio": 6}
    ]},
    {"target": "Sodium-dependent serotonin transporter (Homo sapiens, UniProt P31645)", "sequence (P31645 whole entry)": "as the sequence (P31645 whole entry, looked up) above", "experiment": "Inhibition of [3H]citalopram binding to the serotonin transporter (5-HT) in monkey caudate-putamen.", "format": "tissue-based, Cercopithecidae", "conditions": "target entry is the homologue from another species", "units": {"IC50": "nM"}, "values": [
      {"compound": "COC(=O)C1C2CCC(CC1c1ccc(Cl)c(Cl)c1)O2", "note": "(stereo in doubt; 7f (O-913)) [listing 2 of 2 here]", "IC50": 64.5},
      {"compound": "COC(=O)C1C2CCC(CC1c1ccc(I)cc1)O2", "note": "(stereo in doubt; 7e (O-949)) [listing 2 of 2 here]", "IC50": 72},
      {"compound": "COC(=O)C1C2CCC(CC1c1ccc(Br)cc1)O2", "note": "(stereo in doubt; form 1) [listing 2 of 2 here]", "IC50": 30},
      {"compound": "COC(=O)C1C2CCC(CC1c1ccc(F)cc1)O2", "note": "(stereo in doubt; 6b (O-895)) [listing 2 of 2 here]", "IC50": 2580},
      {"compound": "COC(=O)C1C2CCC(CC1c1ccc(Cl)cc1)O2", "note": "(stereo in doubt; 6c (O-916)) [listing 2 of 2 here]", "IC50": 107},
      {"compound": "COC(=O)C1C2CCC(CC1c1ccc(Cl)c(Cl)c1)O2", "note": "(stereo in doubt; form 3) [listing 2 of 2 here]", "IC50": 31},
      {"compound": "COC(=O)C1C2CCC(CC1c1ccc(Cl)cc1)O2", "note": "(stereo in doubt; 7c (O-915)) [listing 2 of 2 here]", "IC50": 816},
      {"compound": "COC(=O)C1C2CCC(CC1c1ccc(Cl)c(Cl)c1)O2", "note": "(stereo in doubt; form 2) [listing 2 of 2 here]", "IC50": 2860},
      {"compound": "COC(=O)[C@H]1[C@@H](c2ccc(F)cc2)C[C@H]2CC[C@H]1N2C", "note": "(stereo in doubt; 19b)", "IC50": 5060},
      {"compound": "COC(=O)C1C2CCC(CC1c1ccc(I)cc1)O2", "note": "(stereo in doubt) [listing 2 of 2 here]", "IC50": 12},
      {"compound": "COC(=O)C1C2CCC(CC1c1ccccc1)O2", "note": "(stereo in doubt; 7a (O-905)) [listing 2 of 2 here]", "IC50": 11400},
      {"compound": "COC(=O)C1C2CCC(CC1c1ccc(F)cc1)O2", "note": "(stereo in doubt; 7b (O-899)) [listing 2 of 2 here]", "IC50": "> 10000"},
      {"compound": "COC(=O)C1C(c2ccc(I)cc2)CC2CCC1N2C", "note": "(stereo in doubt; 19d)", "IC50": 64.9},
      {"compound": "COC(=O)C1C2CCC(CC1c1ccc(Cl)c(Cl)c1)O2", "note": "(stereo in doubt; form 1) [listing 2 of 2 here]", "IC50": 58},
      {"compound": "COC(=O)C1C2CCC(CC1c1ccc(Cl)c(Cl)c1)O2", "note": "(stereo in doubt; 6f (O-914)) [listing 2 of 2 here]", "IC50": 6.52},
      {"compound": "COC(=O)C1C2CCC(CC1c1ccc(Br)cc1)O2", "note": "(stereo in doubt; form 2) [listing 2 of 2 here]", "IC50": 276},
      {"compound": "COC(=O)C1C(c2ccc(I)cc2)CC2CCC1N2C", "note": "(stereo in doubt; 8d)", "IC50": 4.21},
      {"compound": "COC(=O)C1C2CCC(CC1c1ccccc1)O2", "note": "(stereo in doubt; 6a (O-904)) [listing 2 of 2 here]", "IC50": "> 10000"},
      {"compound": "COC(=O)C1C(c2ccc(Cl)c(Cl)c2)CC2CCC1N2C", "note": "(stereo in doubt; form 1)", "IC50": 27},
      {"compound": "COC(=O)C1C2CCC(CC1c1ccc(Cl)c(Cl)c1)O2", "note": "(stereo in doubt; form 4) [listing 2 of 2 here]", "IC50": 4.67}
    ]}
  ]
}
